# From patent publication US9890188B2, “Substituted nucleosides, nucleotides and analogs thereof” (ALIOS BIOPHARMA, INC., priority 2014, dated 2018)
# System: Human rhinovirus 1B
# Experiment: Picornavirus assay: human rhinovirus 1B cytopathic effect in HeLa-OHIO cells, CellTiter-Glo readout
# Assay type: cell-based
# Conditions: Rhinovirus A, 96 h, compound and virus added together, 4 d at 33° C.
# Experimental: (§1) HeLa-OHIO cells (Sigma-Aldrich, St. Louis, Mo.) were plated in 96 well plates at a density of 1.5×10^5 cells per well in assay media (MEM without phenol red or L-glutamine, supplemented with 1% FBS, 1% penicillin/streptomycin, 2 mM GlutaGro, and 1×MEM nonessential amino acids, all from Cellgro, Manassas, Va.). Assay setup took place after allowing cells to adhere for 24 h. Compounds dissolved in DMSO were serially diluted in assay media to 2× final concentration. Media was aspirated from the cells, and 1000 media with compound was added in triplicate. Human rhinovirus 1B (ATCC, Manassas, Va.) was diluted in assay media, and 100 μL was added to cells and compound. The virus inoculum was selected to cause 80-90% cytopathic effect in 4 d. Infected cells were incubated for 4 d at 33° C., 5% CO2. To develop the assay, 100 μL media was replaced with 100 μL CellTiter-Glo® reagent (Promega, Madison, Wis.), and incubated for 10 mins at RT. Luminescence was measured on a Victor X3 multi-label plate reader. Compounds of Formula (I) are active in this assay.
row,EC50,SMILES
1,< 1 µM,Nc1ccn([C@@H]2O[C@@](CO)(CCl)[C@@H](O)[C@@H]2F)c(=O)n1 [Compound 3]
2,1 to 10 µM,Nc1ccn([C@@H]2O[C@@](CO)(CF)[C@@H](O)[C@@H]2Cl)c(=O)n1 [Compound 2]
3,< 1 µM,Nc1ccn([C@@H]2O[C@@](CO)(CF)[C@@H](O)[C@@H]2F)c(=O)n1 [Compound 7]
4,< 1 µM,[N-]=[N+]=NC[C@]1(CO)O[C@@H](n2ccc(N)nc2=O)[C@@H](F)[C@@H]1O [Compound 4]
5,< 1 µM,C=C[C@]1(CO)O[C@@H](n2ccc(N)nc2=O)[C@@H](F)[C@@H]1O [Compound 9]
6,< 1 µM,[N-]=[N+]=NC[C@]1(CO)O[C@@H](n2ccc(N)nc2=O)C[C@@H]1O [Compound 37]
7,1 to 10 µM,CC[C@]1(CO)O[C@@H](n2ccc(N)nc2=O)[C@@H](F)[C@@H]1O [Compound 10]

# System: Human rhinovirus 1B
# Experiment: Picornavirus assay with 24 h compound pre-incubation before infection: human rhinovirus 1B in HeLa-OHIO cells, CellTiter-Glo readout
# Assay type: cell-based
# Conditions: Rhinovirus A, HeLa-OHIO cells pre-incubated with compound for 24 h before infection, 4 d at 33° C.
# Experimental: as §1, with “100 μl” for “1000”, “triplicate. Cells were pre-incubated with the diluted compounds for 24 h before infection.” for “triplicate.”
row,EC50,SMILES
1,10 to 100 µM,Nc1ccn([C@@H]2O[C@@](CO)(C(F)F)[C@@H](O)[C@@H]2O)c(=O)n1 [Compound 44]
2,1 to 10 µM,Nc1ccn([C@@H]2O[C@@](CO)(CF)[C@@H](O)[C@@H]2O)c(=O)n1 [Compound 45]
3,1 to 10 µM,C[C@@H]1[C@H](n2ccc(N)nc2=O)O[C@@](CO)(CF)[C@H]1O [Compound 41]

# Biological target: human rhinovirus 16 polymerase (HRV16pol) (Human rhinovirus 16, UniProt Q82122)
# Sequence (Q82122 1694-2153 limits assumed): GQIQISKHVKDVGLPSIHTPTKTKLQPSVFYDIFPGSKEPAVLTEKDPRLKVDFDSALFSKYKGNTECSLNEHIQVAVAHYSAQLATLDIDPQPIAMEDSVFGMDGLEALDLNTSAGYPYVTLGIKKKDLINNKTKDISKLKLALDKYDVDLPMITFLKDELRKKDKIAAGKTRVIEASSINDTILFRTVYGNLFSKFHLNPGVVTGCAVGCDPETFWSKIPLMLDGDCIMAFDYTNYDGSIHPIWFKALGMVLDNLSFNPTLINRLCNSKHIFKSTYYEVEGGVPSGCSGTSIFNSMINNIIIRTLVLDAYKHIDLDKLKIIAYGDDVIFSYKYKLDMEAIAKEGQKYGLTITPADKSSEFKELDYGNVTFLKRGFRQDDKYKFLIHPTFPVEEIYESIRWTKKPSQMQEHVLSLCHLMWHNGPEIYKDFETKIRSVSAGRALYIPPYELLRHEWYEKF
# Experiment: Picornavirus polymerase inhibition assay: incorporation of tritiated NMP into acid-insoluble RNA products
# Assay type: biochemical
# Conditions: not given
# Experimental: The enzyme activity of human rhinovirus 16 polymerase (HRV16pol) was measured as an incorporation of tritiated NMP into acid-insoluble RNA products. HRV16pol assay reactions contained 30 Nm recombinant enzyme, 50 Nm heteropolymeric RNA, about 0.5 μCi tritiated NTP, 0.1 Mm of competing cold NTP, 40 Mm Tris-HCl (Ph 7.0), 3 Mm dithiothreitol, and 0.5 Mm MgCl2. Standard reactions were incubated for 2.5 h at 30° C., in the presence of increasing concentration of inhibitor. At the end of the reaction, RNA was precipitated with 10% TCA, and acid-insoluble RNA products were filtered on a size exclusion 96-well plate. After washing of the plate, scintillation liquid was added and radiolabeled RNA products were detected according to standard procedures with a Trilux Microbeta scintillation counter. The compound concentration at which the enzyme-catalyzed rate was reduced by 50% (IC50) was calculated by fitting the data to a non-linear regression (sigmoidal).
# A value of ‘A’ in the table below indicates an IC50 of <5 μM, a value of 13′ indicates an IC50<20 μM, and a value of ‘C’ indicates an IC50 value of <100 μM.
row,SMILES,IC50
1,Nc1ccn([C@@H]2O[C@](CF)(COP(=O)(O)OP(=O)(O)OP(=O)(O)O)[C@@H](O)[C@@H]2F)c(=O)n1 [Compound 21],< 5 µM

# Same assay, conditions: recombinant HRV16pol, 2.5 h at 30° C., mean of several independent experiments; read-out: IC50
row,IC50,SMILES
1,< 5 µM,Nc1ccn([C@H]2C[C@H](O)[C@](COP(=O)(O)OP(=O)(O)OP(=O)(O)O)(C(F)F)O2)c(=O)n1 [Compound 54]
2,5 to 20 µM,C#C[C@]1(COP(=O)(O)OP(=O)(O)OP(=O)(O)O)O[C@@H](n2ccc(N)nc2=O)[C@@H](F)[C@@H]1O [Compound 22]
3,20 to 100 µM,Nc1ccn([C@@H]2O[C@](CBr)(COP(=O)(O)OP(=O)(O)OP(=O)(O)O)[C@@H](O)[C@@H]2F)c(=O)n1 [Compound 20]
4,< 5 µM,CC[C@]1(COP(=O)(O)OP(=O)(O)OP(=O)(O)O)O[C@@H](n2ccc(N)nc2=O)[C@@H](F)[C@@H]1O [Compound 24]
5,< 5 µM,Nc1ccn([C@@H]2O[C@@](COP(=O)(O)OP(=O)(O)OP(=O)(O)O)(C(F)F)[C@@H](O)[C@@H]2O)c(=O)n1 [Compound 52]
6,5 to 20 µM,[N-]=[N+]=NC[C@]1(COP(=O)(O)OP(=O)(O)OP(=O)(O)O)O[C@@H](n2ccc(N)nc2=O)[C@@H](F)[C@@H]1O [Compound 18]
7,< 5 µM,O=c1ccn([C@@H]2O[C@](CCl)(COP(=O)(O)OP(=O)(O)OP(=O)(O)O)[C@@H](O)[C@@H]2F)c(=O)[nH]1 [Compound 19]
8,< 5 µM,C=C[C@]1(COP(=O)(O)OP(=O)(O)OP(=O)(O)O)O[C@@H](n2ccc(N)nc2=O)[C@@H](F)[C@@H]1O [Compound 23]
9,5 to 20 µM,Nc1ccn([C@@H]2O[C@](CF)(COP(=O)(O)OP(=O)(O)OP(=O)(O)O)[C@@H](O)[C@@H]2CF)c(=O)n1 [Compound 50]
10,< 5 µM,Nc1ccn([C@@H]2O[C@](CF)(COP(=O)(O)OP(=O)(O)OP(=O)(O)O)[C@@H](O)[C@@H]2O)c(=O)n1 [Compound 53]
11,20 to 100 µM,Nc1ccn([C@@H]2O[C@](CF)(COP(=O)(O)OP(=O)(O)OP(=O)(O)O)[C@@H](O)[C@@H]2Cl)c(=O)n1 [Compound 16]
12,< 5 µM,C[C@@H]1[C@H](n2ccc(N)nc2=O)O[C@](CF)(COP(=O)(O)OP(=O)(O)OP(=O)(O)O)[C@H]1O [Compound 47]
13,< 5 µM,C#C[C@@H]1[C@H](n2ccc(N)nc2=O)O[C@](CF)(COP(=O)(O)OP(=O)(O)OP(=O)(O)O)[C@H]1O [Compound 48]
